For test [1], the target named is T1, ALDH9A1 (Homo sapiens, UniProt P49189).
T1 construct: recombinant ALDH9A1
Nature of the test: inhibition of TMABAL oxidation by purified enzyme (NADH formation); preincubation and dialysis; also slow substrate. In kind it is biochemical.

Test [2] addresses T1, ALDH9A1. Kind of test: MST (RED-tris-NTA labelled enzyme); also NADH-formation activity assay. The class given is binding.
Test [3] has as its target T1, ALDH9A1. Kind of test: MST; also inhibition of TMABAL and ABAL oxidation at […]. The class given is binding.

Experimental findings from publication PMC10619140, “Thinking outside the CaaX-box: an unusual reversible prenylation on ALDH9A1” (RSC Chemical Biology, 2023) are described below.

Usually IC50 stands for the point on the concentration scale where inhibition reaches its midpoint. Low values mean greater potency, high ones weaker potency. The Kd is the concentration at which binding is half-saturated.

T1 sequence (P49189 whole entry): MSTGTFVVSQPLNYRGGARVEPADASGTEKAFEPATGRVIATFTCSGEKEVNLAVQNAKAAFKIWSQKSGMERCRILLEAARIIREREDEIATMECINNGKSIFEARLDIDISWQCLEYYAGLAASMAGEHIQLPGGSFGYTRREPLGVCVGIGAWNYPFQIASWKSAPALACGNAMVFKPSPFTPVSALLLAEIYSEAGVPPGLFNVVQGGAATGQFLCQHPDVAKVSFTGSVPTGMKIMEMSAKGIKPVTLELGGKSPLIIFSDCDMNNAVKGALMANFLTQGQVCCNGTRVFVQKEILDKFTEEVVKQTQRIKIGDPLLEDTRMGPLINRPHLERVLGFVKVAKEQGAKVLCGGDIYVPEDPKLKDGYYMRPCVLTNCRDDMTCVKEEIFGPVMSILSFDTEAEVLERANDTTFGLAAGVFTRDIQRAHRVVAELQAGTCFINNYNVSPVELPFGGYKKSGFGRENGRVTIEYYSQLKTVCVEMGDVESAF

Regarding `CC(C)=CCC/C(C)=C/CC/C(C)=C/C=O` [FCHO, farnesal], in test [1], the IC50 was ~10 µM. `C[N+](C)(C)CCCC=O` [TMABAL] gave a Kd in test [2] of 11 µM. As to `C[N+](C)(C)NCCC(=O)[O-]` [meldonium, 3-(2,2,2-trimethylhydrazinium) propionate], the affinity in test [3], expressed as Kd, was 1200 µM.
